Measured values published in ChEMBL document CHEMBL1201862, “PubChem BioAssay data set” (2004).
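96-well plates; 48 h exposure; 5 concentrations. Endpoints by linear interpolation between flanking doses. Not reached: highest tested concentration assigned. GI50 marks 50% less growth.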 Calls of active or inactive are those of the source. Rule as the data show it: active = GI50 up to about 1.1 µM and inactive = higher.

Assays:
Assay in all cases: growth of human tumour cells (NCI), 48 h
786-0 = system: 786-0
A498 = system: A498
COLO 205 = system: COLO 205
EKVX = system: EKVX
HL-60 = system: HL-60
IGROV-1 = system: IGROV-1
KM12 = system: KM12
LOX IMVI = system: LOX IMVI
MDA-MB-231 = system: MDA-MB-231
MDA-MB-435 = system: MDA-MB-435
MOLT-4 = system: MOLT-4
Malme-3M = system: Malme-3M
NCI/ADR-RES = system: NCI/ADR-RES
RPMI-8226 = system: RPMI-8226
SF-268 = system: SF-268
SK-MEL-28 = system: SK-MEL-28
SNB-19 = system: SNB-19
SNB-75 = system: SNB-75
T47D = system: T47D
U-251 = system: U-251

Row | Structure (SMILES) | GI50 (786-0) | GI50 (A498) | GI50 (COLO 205) | GI50 (EKVX) | GI50 (HL-60) | GI50 (IGROV-1) | GI50 (KM12) | GI50 (LOX IMVI) | GI50 (MDA-MB-231) | GI50 (MDA-MB-435) | GI50 (MOLT-4) | GI50 (Malme-3M) | GI50 (NCI/ADR-RES) | GI50 (RPMI-8226) | GI50 (SF-268) | GI50 (SK-MEL-28) | GI50 (SNB-19) | GI50 (SNB-75) | GI50 (T47D) | GI50 (U-251)
1 | Cc1csc2c1C(=O)c1ccsc1C2=O | 4.63 µM (inactive) | 18.2 µM (inactive) | 12.2 µM (inactive) | 7.98 µM (inactive) | 2.65 µM (inactive) | 3.24 µM (inactive) | 2.96 µM (inactive) | 1.26 µM (inactive) | 2.35 µM (inactive) | 0.215 µM (active) | 4.61 µM (inactive) | 0.343 µM (active) | 1.87 µM (inactive) | 3.61 µM (inactive) | 2.96 µM (inactive) | 1.53 µM (inactive) | 3.37 µM (inactive) | 1.97 µM (inactive) | 2.2 µM (inactive) | 3.4 µM (inactive)
2 | CC(N)C(C)Cc1ccccc1 (stereo not given) | > 100 µM (inactive) | > 100 µM (inactive) | > 100 µM (inactive) | > 100 µM (inactive) | > 100 µM (inactive) | > 100 µM (inactive) | > 100 µM (inactive) | > 100 µM (inactive) | > 100 µM (inactive) | > 100 µM (inactive) | > 100 µM (inactive) | > 100 µM (inactive) | > 100 µM (inactive) | > 100 µM (inactive) | > 100 µM (inactive) | > 100 µM (inactive) | > 100 µM (inactive) | > 100 µM (inactive) | > 100 µM (inactive) | > 100 µM (inactive)
3 | O=C1SC(c2ccc(Cl)cc2)(c2ccc(Cl)cc2)c2ccccc21 | > 100 µM (inactive) | > 100 µM (inactive) | 83 µM (inactive) | 86.7 µM (inactive) | 28.2 µM (inactive) | > 100 µM (inactive) | 66.7 µM (inactive) | 80.7 µM (inactive) | > 100 µM (inactive) | 61.5 µM (inactive) | 32.7 µM (inactive) | > 100 µM (inactive) | > 100 µM (inactive) | 55.8 µM (inactive) | > 100 µM (inactive) | > 100 µM (inactive) | > 100 µM (inactive) | > 100 µM (inactive) | 69 µM (inactive) | > 100 µM (inactive)
4 | CN(C)c1n/c(=N/Cc2cccs2)ss1 | 9.98 µM (inactive) | > 10 µM (inactive) | > 10 µM (inactive) | > 10 µM (inactive) | 1.35 µM (inactive) | > 10 µM (inactive) | > 10 µM (inactive) | > 5.62 µM (inactive) | > 10 µM (inactive) | > 10 µM (inactive) | 1.72 µM (inactive) | > 10 µM (inactive) | > 10 µM (inactive) | > 3.04 µM (inactive) | > 10 µM (inactive) | > 10 µM (inactive) | > 10 µM (inactive) | > 10 µM (inactive) | > 10 µM (inactive) | > 10 µM (inactive)
5 | O=C1/C(=C/c2ccccc2)N=C2Sc3c([nH]cnc3=O)N12 | > 100 µM (inactive) | > 100 µM (inactive) | > 100 µM (inactive) | > 100 µM (inactive) | 42.3 µM (inactive) | > 100 µM (inactive) | > 100 µM (inactive) | > 100 µM (inactive) | > 100 µM (inactive) | 60 µM (inactive) | 44.3 µM (inactive) | > 100 µM (inactive) | > 100 µM (inactive) | > 100 µM (inactive) | > 100 µM (inactive) | > 100 µM (inactive) | > 100 µM (inactive) | > 100 µM (inactive) | > 100 µM (inactive) | > 100 µM (inactive)
6 | CC1CC(NC2CCCCC2)=Nc2ccccc2N1Cc1ccccc1 (stereo not given) | 7.71 µM (inactive) | 2.05 µM (inactive) | 4.35 µM (inactive) | 8.22 µM (inactive) | 4.51 µM (inactive) | 1.91 µM (inactive) | 4.75 µM (inactive) | 2.11 µM (inactive) | 4.51 µM (inactive) | 3.38 µM (inactive) | 3.55 µM (inactive) | 1.49 µM (inactive) | 5.85 µM (inactive) | 2.6 µM (inactive) | 4.06 µM (inactive) | 4.38 µM (inactive) | 11.3 µM (inactive) | 0.417 µM (active) | 4.18 µM (inactive) | 7.16 µM (inactive)
7 | Cc1cc(NCc2ccccc2)c2ccccc2[n+]1CCCCCCCCCC[n+]1c(C)cc(NCc2ccccc2)c2ccccc21.[O-][Cl+3]([O-])([O-])[O-].[O-][Cl+3]([O-])([O-])[O-] | 0.653 µM (active) | 0.883 µM (active) | 0.236 µM (active) | 1.19 µM (inactive) | 0.265 µM (active) | 2.98 µM (inactive) | 0.191 µM (active) | 0.238 µM (active) | 0.472 µM (active) | 0.39 µM (active) | 0.423 µM (active) | 4.06 µM (inactive) | 3.15 µM (inactive) | 0.124 µM (active) | 0.478 µM (active) | 0.71 µM (active) | 0.252 µM (active) | 0.205 µM (active) | 0.321 µM (active) | 0.0964 µM (active)
8 | O=C(N/N=C(COc1ccccc1Cl)\N=C\c1ccncc1)c1ccncc1 | > 100 µM (inactive) | > 100 µM (inactive) | > 100 µM (inactive) | > 100 µM (inactive) | > 100 µM (inactive) | > 100 µM (inactive) | > 100 µM (inactive) | > 100 µM (inactive) | > 100 µM (inactive) | > 100 µM (inactive) | 61.1 µM (inactive) | > 100 µM (inactive) | > 100 µM (inactive) | > 100 µM (inactive) | > 100 µM (inactive) | > 100 µM (inactive) | > 100 µM (inactive) | 15.9 µM (inactive) | > 100 µM (inactive) | > 100 µM (inactive)
9 | CO[C@@]12[C@H](COC(N)=O)C3=C(C(=O)C(C)=C(N)C3=O)N1C[C@H]1[C@@H]2N1C (stereo not given in full) [PORFIROMYCIN] | 8.57 µM (inactive) | 6.31 µM (inactive) | 2.22 µM (inactive) | 12.3 µM (inactive) | 0.34 µM (active) | 5.62 µM (inactive) | 6.97 µM (inactive) | 0.794 µM (active) | 9.73 µM (inactive) | 12.3 µM (inactive) | 0.543 µM (active) | 4.1 µM (inactive) | 29.4 µM (inactive) | 8.41 µM (inactive) | 3.46 µM (inactive) | 12.3 µM (inactive) | 2.35 µM (inactive) | 1.1 µM (active) | 9.2 µM (inactive) | 1.19 µM (inactive)
10 | CN(C)CCNC(=O)c1ccc(NCCCN(C)CCCNc2ccc(C(=O)NCCN(C)C)c3nc4ccccc4c(O)c23)c2c(O)c3ccccc3nc12 | < 0.01 µM (active) | 0.13 µM (active) | < 0.0109 µM (active) | 0.115 µM (active) | < 0.0229 µM (active) | < 0.01 µM (active) | < 0.0116 µM (active) | < 0.01 µM (active) | 0.111 µM (active) | 0.0101 µM (active) | < 0.01 µM (active) | < 0.0153 µM (active) | 1.8 µM (inactive) | < 0.01 µM (active) | < 0.01 µM (active) | 0.161 µM (active) | < 0.01 µM (active) | < 0.01 µM (active) | 0.171 µM (active) | < 0.01 µM (active)
11 | Cc1ccc(S(=O)(=O)N/N=C2/CCC(C(C)(C)C)CC2Br)cc1 (stereo not given) | 31.2 µM (inactive) | 48.6 µM (inactive) | 27.2 µM (inactive) | 36.6 µM (inactive) | 41.9 µM (inactive) | 38.6 µM (inactive) | 20.8 µM (inactive) | 16.4 µM (inactive) | 37.9 µM (inactive) | 18.7 µM (inactive) | 20 µM (inactive) | 16.3 µM (inactive) | 17.6 µM (inactive) | 28.4 µM (inactive) | 36.6 µM (inactive) | 19.6 µM (inactive) | 36.6 µM (inactive) | 27.4 µM (inactive) | 27.4 µM (inactive) | 8.24 µM (inactive)
12 | CSCCC(N)P(C)(=O)O (stereo not given) | > 100 µM (inactive) | > 100 µM (inactive) | > 100 µM (inactive) | > 100 µM (inactive) | > 100 µM (inactive) | > 100 µM (inactive) | > 100 µM (inactive) | > 100 µM (inactive) | > 100 µM (inactive) | > 22.2 µM (inactive) | > 100 µM (inactive) | > 100 µM (inactive) | > 100 µM (inactive) | > 100 µM (inactive) | > 100 µM (inactive) | > 100 µM (inactive) | > 100 µM (inactive) | > 100 µM (inactive) | > 100 µM (inactive) | > 100 µM (inactive)
13 | CNC(=S)N/N=C(\C)c1cc(OC)ccc1O | > 100 µM (inactive) | > 100 µM (inactive) | 0.447 µM (active) | > 100 µM (inactive) | > 31.4 µM (inactive) | > 64.9 µM (inactive) | > 100 µM (inactive) | > 100 µM (inactive) | > 100 µM (inactive) | > 78.9 µM (inactive) | > 65.6 µM (inactive) | > 100 µM (inactive) | 28.6 µM (inactive) | > 31.3 µM (inactive) | > 100 µM (inactive) | > 100 µM (inactive) | > 100 µM (inactive) | > 95.3 µM (inactive) | > 100 µM (inactive) | > 100 µM (inactive)
14 | c1cc(C2N3CCCN2CC3)ccn1 (stereo not given) | 56.2 µM (inactive) | > 100 µM (inactive) | > 100 µM (inactive) | > 100 µM (inactive) | 40.2 µM (inactive) | 96.6 µM (inactive) | > 100 µM (inactive) | 57.9 µM (inactive) | > 100 µM (inactive) | 25.5 µM (inactive) | 36.1 µM (inactive) | 21.9 µM (inactive) | 61 µM (inactive) | 24.1 µM (inactive) | 8.38 µM (inactive) | > 100 µM (inactive) | > 100 µM (inactive) | > 100 µM (inactive) | > 100 µM (inactive) | 58.3 µM (inactive)
